The values below come from patent US10233173B2, “Substituted 1,2,3-triazoles as NR2B-selective NMDA modulators” (JANSSEN PHARMACEUTICA NV, priority 2016, dated 2019).

SMILES strings stand for the structures.

In one experiment the target is human GluN1/GluN2B NMDA receptors (Homo sapiens, UniProt Q05586+Q13224). In words: Cell-based calcium flux (FLIPR) assay on cloned human NR1/NR2B ion channels expressed in mammalian cells. The settings on record: standard assay; glutamate at ~EC80; FLIPR calcium flux. The method, boiled down: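 Calcium influx followed by FLIPR fluorescence after 5 min compound exposure and a further 5 min co-agonist challenge: 10 μM glycine with glutamate at ~EC80 (standard) or EC40 (HTS).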
Chain of human GluN1/GluN2B NMDA receptors (Q13224 27-1484, other chains not shown): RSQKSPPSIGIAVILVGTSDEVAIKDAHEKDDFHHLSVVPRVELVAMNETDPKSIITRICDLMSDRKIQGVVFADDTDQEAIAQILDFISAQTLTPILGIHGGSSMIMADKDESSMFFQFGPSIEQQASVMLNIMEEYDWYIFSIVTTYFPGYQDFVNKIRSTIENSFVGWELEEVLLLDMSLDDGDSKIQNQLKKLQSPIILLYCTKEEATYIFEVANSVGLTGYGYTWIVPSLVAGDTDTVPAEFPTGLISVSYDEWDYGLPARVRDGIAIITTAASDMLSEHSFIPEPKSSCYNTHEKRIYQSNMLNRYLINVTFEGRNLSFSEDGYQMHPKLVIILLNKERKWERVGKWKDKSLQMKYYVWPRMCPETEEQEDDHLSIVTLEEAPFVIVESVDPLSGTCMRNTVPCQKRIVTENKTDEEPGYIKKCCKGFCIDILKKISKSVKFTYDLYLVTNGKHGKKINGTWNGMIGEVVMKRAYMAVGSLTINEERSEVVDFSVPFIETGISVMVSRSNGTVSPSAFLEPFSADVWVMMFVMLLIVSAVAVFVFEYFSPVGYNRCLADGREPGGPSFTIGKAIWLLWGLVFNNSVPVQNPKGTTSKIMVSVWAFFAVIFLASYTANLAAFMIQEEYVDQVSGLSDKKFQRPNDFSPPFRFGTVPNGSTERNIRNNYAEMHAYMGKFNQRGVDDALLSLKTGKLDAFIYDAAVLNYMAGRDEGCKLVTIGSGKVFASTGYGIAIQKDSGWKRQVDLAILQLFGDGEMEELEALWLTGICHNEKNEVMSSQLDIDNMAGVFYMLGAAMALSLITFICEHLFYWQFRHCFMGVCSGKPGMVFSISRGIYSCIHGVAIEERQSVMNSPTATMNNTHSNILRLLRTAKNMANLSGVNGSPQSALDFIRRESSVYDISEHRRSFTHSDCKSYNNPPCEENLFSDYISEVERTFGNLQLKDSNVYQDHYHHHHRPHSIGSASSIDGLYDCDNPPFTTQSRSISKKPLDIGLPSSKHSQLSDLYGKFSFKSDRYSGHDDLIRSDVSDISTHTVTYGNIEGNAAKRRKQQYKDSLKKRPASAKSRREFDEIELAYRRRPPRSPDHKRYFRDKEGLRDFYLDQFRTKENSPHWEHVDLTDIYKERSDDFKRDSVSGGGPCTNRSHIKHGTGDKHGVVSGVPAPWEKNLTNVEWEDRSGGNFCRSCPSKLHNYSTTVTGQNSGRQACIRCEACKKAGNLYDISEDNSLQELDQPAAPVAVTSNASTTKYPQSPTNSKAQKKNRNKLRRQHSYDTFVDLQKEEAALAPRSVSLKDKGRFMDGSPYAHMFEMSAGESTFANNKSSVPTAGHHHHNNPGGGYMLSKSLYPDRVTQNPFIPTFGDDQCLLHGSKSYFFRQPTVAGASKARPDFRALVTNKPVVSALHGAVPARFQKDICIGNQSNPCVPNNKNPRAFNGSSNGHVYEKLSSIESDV
With `Cc1nc(OCc2cn(-c3ccc(C(F)(F)F)s3)nn2)ncc1F` [Example 668, 5-Fluoro-4-methyl-2-((1-(5-(trifluoromethyl)thiophen-2-yl)-1H-1,2,3-triazol-4-yl)methoxy)pyrimidine], the IC50 was found to be 0.008 µM.

On to `Cc1c(F)ccc(-n2cc(COc3ncc(C4CC4)cn3)nn2)c1F` [Example 647, 5-Cyclopropyl-2-[[1-(2,4-difluoro-3-methyl-phenyl)triazol-4-yl]methoxy]pyrimidine], for which the IC50 was 0.034 µM. Same read-out and setting: then `Cc1ccnc(OCc2cn(-c3ccc(F)c(C(F)(F)F)c3)nn2)c1` [Example 429, 2-[[1-[4-Fluoro-3-(trifluoromethyl)phenyl]triazol-4-yl]methoxy]-4-methyl-pyridine], with 0.665 µM; and `CC(F)(F)c1cc(-n2cc(COc3nccc(CO)n3)nn2)ccc1F` [Example 568, [2-[[1-[3-(1,1-Difluoroethyl)-4-fluoro-phenyl]triazol-4-yl]methoxy]pyrimidin-4-yl]methanol], with 0.025 µM; and `CC(F)(F)c1cc(-n2cc(COc3ccc(C(F)(F)F)cn3)nn2)ccc1F` [Example 559, 2-[[1-[3-(1,1-Difluoroethyl)-4-fluoro-phenyl]triazol-4-yl]methoxy]-5-(trifluoromethyl)pyridine], with 0.812 µM. For `Fc1ccc(-n2cc(COc3nccc(N4CC[C@@H](F)C4)n3)nn2)cc1OC(F)F` [Example 512, (R)-2-[[1-[3-(Difluoromethoxy)-4-fluoro-phenyl]triazol-4-yl]methoxy]-4-[(3R)-3-fluoropyrrolidin-1-yl]pyrimidine], the IC50 stood at 0.308 µM. With `Fc1ccc(-n2cc(COc3ccc(Cl)cn3)nn2)cc1C(F)(F)F` [Example 428, 5-Chloro-2-[[1-[4-fluoro-3-(trifluoromethyl)phenyl]triazol-4-yl]methoxy]pyridine], the IC50 was 0.796 µM. The same measure, in the same setting: then `Cc1cccc(OCc2cn(-c3ccc(F)c(C(F)(F)F)c3)nn2)n1` [Example 430, 2-[[1-[4-Fluoro-3-(trifluoromethyl)phenyl]triazol-4-yl]methoxy]-6-methyl-pyridine], with 0.11 µM; and `CCOCc1ccnc(OCc2cn(-c3ccc(F)c(OC(F)F)c3)nn2)n1` [Example 711, 2-((1-(3-(Difluoromethoxy)-4-fluorophenyl)-1H-1,2,3-triazol-4-yl)methoxy)-4-(ethoxymethyl)pyrimidine], with 0.043 µM; and `Fc1ccc(-n2cc(COc3nccc(N4CC(F)(F)C4)n3)nn2)cc1OC(F)F` [Example 511, 4-(3,3-Difluoroazetidin-1-yl)-2-[[1-[3-(difluoromethoxy)-4-fluoro-phenyl]triazol-4-yl]methoxy]pyrimidine], with 0.041 µM. Same read-out and setting: then `Cc1c(F)cccc1-n1cc(COc2ncc(Cl)cn2)nn1` [Example 463, 5-Chloro-2-[[1-(3-fluoro-2-methyl-phenyl)triazol-4-yl]methoxy]pyrimidine], with 0.647 µM; and `CC(C)(O)c1cnc(OCc2cn(-c3ccc(Cl)c(C(F)F)c3)nn2)nc1` [Example 626, 2-[2-[[1-[4-Chloro-3-(difluoromethyl)phenyl]triazol-4-yl]methoxy]pyrimidin-5-yl]propan-2-ol], with 0.067 µM; and `Fc1ccc(-n2cc(COc3nccc(-c4ccccc4)n3)nn2)cc1OC(F)F` [Example 506, 2-[[1-[3-(Difluoromethoxy)-4-fluoro-phenyl]triazol-4-yl]methoxy]-4-phenyl-pyrimidine], with 9.75 µM.

Still in this experiment, the particulars now being: standard assay; human GluN1/GluN2B, calcium flux (FLIPR), glutamate ~EC80.
`Cc1cnc(OCc2cn(-c3ccnc(Br)c3)nn2)nc1` [Example 177, 2-[[1-(2-Bromo-4-pyridyl)triazol-4-yl]methoxy]-5-methyl-pyrimidine]: the IC50 stood at 0.172 µM. As to `COCc1ccnc(OCc2cn(-c3cccc(C(C)(F)F)c3)nn2)n1` [Example 300, 2-[[1-[3-(1,1-Difluoroethyl)phenyl]triazol-4-yl]methoxy]-4-(methoxymethyl)pyrimidine], the IC50 was found to be 0.008 µM. `FC(F)c1cc(-n2cc(COc3ncc(Cl)cn3)nn2)ccc1Cl` [Example 47, 5-Chloro-2-[[1-[4-chloro-3-(difluoromethyl)phenyl]triazol-4-yl]methoxy]pyrimidine]: the IC50 was determined as 0.003 µM. Still for that read-out and setting: the same measure for `Cc1cccc(OCc2cn(-c3ccc(F)c(C(F)F)c3)nn2)n1` [Example 113, 2-[[1-[3-(Difluoromethyl)-4-fluoro-phenyl]triazol-4-yl]methoxy]-6-methyl-pyridine]: 0.038 µM; for `Cc1cccc(OCc2cn(-c3ccc(F)c(OC(F)F)c3)nn2)n1` [Example 8, 2-[[1-[3-(Difluoromethoxy)-4-fluoro-phenyl]triazol-4-yl]methoxy]-6-methyl-pyridine]: 0.022 µM; for `Cc1cccc(-n2cc(COc3ncccn3)nn2)c1` [Example 242, 2-[[1-(m-Tolyl)triazol-4-yl]methoxy]pyrimidine]: 0.647 µM. Regarding `Cc1ccc(-n2cc(COc3ncc(C)cn3)nn2)cc1` [Example 260, 5-Methyl-2-[[1-(p-tolyl)triazol-4-yl]methoxy]pyrimidine], the IC50 amounted to 0.271 µM. For the molecule `CC(F)(F)c1cccc(-n2cc(COc3ncc(C(F)F)cn3)nn2)c1` [Example 302, 2-[[1-[3-(1,1-Difluoroethyl)phenyl]triazol-4-yl]methoxy]-5-(difluoromethyl)pyrimidine], the IC50 came out at 0.002 µM. In the case of `FC(F)c1cc(-n2cc(COc3ncccn3)nn2)ccc1N1CCC1` [Example 188, 2-((1-(4-(Azetidin-1-yl)-3-(difluoromethyl)phenyl)-1H-1,2,3-triazol-4-yl)methoxy)pyrimidine], the IC50 amounted to 4.58 µM.

On to `COc1cc(-n2cc(COc3ncccn3)nn2)ccc1F` [Example 20, 2-[[1-(4-Fluoro-3-methoxy-phenyl)triazol-4-yl]methoxy]pyrimidine], for which the IC50 came out at 1 µM. In the case of `CC(C)c1cnc(OCc2cn(-c3cccc(C(F)(F)F)c3)nn2)nc1` [Example 288, 5-Isopropyl-2-[[1-[3-(trifluoromethyl)phenyl]triazol-4-yl]methoxy]pyrimidine], the IC50 stood at 0.04 µM.

On to `Fc1ccc(-n2cc(COc3ncc(Cl)cn3)nn2)cc1OC(F)F` [Example 61, 5-Chloro-2-[[1-[3-(difluoromethoxy)-4-fluoro-phenyl]triazol-4-yl]methoxy]pyrimidine], for which the IC50 was found to be 0.003 µM. For `Cn1nccc1NCc1cn(-c2ccc(F)c(OC(F)F)c2)nn1` [Example 223, N-((1-(3-(Difluoromethoxy)-4-fluorophenyl)-1H-1,2,3-triazol-4-yl)methyl)-1-methyl-1H-pyrazol-5-amine], the IC50 was 11.8 µM.

`FC(F)c1cc(-n2cc(CNc3ncc(Cl)cn3)nn2)ccc1Cl` [Example 200, 5-Chloro-N-[[1-[4-chloro-3-(difluoromethyl)phenyl]triazol-4-yl]methyl]pyrimidin-2-amine]: the IC50 was found to be 0.131 µM. On the same count and under the same terms, the same measure for `Cc1cnc(OCc2cn(-c3ccc4c(c3)OC(F)(F)O4)nn2)nc1` [Example 354, 2-[[1-(2,2-Difluoro-1,3-benzodioxol-5-yl)triazol-4-yl]methoxy]-5-methyl-pyrimidine]: 0.073 µM; for `Cc1cnc(OCc2cn(-c3cccc(C(F)F)c3)nn2)nc1N(C)C` [Example 281, 2-[[1-[3-(Difluoromethyl)phenyl]triazol-4-yl]methoxy]-N,N,5-trimethyl-pyrimidin-4-amine]: 0.13 µM.

For `CCc1cnc(OCc2cn(-c3ccc(F)c(C)c3F)nn2)nc1` [Example 39, 2-[[1-(2,4-Difluoro-3-methyl-phenyl)triazol-4-yl]methoxy]-5-ethyl-pyrimidine], the IC50 was 0.015 µM. As to `CC(O)c1cnc(OCc2cn(-c3ccc(F)c(C(F)F)c3)nn2)nc1` (racemic) [Example 157, (R/S)-1-[2-[[1-[3-(Difluoromethyl)-4-fluoro-phenyl]triazol-4-yl]methoxy]pyrimidin-5-yl]ethanol], the IC50 amounted to 0.018 µM. Still for that read-out and setting: the same measure for `FC(F)c1cccc(-n2cc(COc3nccc(N4CCCCC4)n3)nn2)c1` [Example 285, 2-[[1-[3-(Difluoromethyl)phenyl]triazol-4-yl]methoxy]-4-(1-piperidyl)pyrimidine]: 0.299 µM; for `Cc1cccc(-n2cc(COc3ncc(F)cn3)nn2)c1` [Example 247, 5-Fluoro-2-[[1-(m-tolyl)triazol-4-yl]methoxy]pyrimidine]: 0.34 µM. On the same count and under the same terms, then `CC(F)(F)c1cc(-n2cc(CNc3ncc(C4CC4)cn3)nn2)ccc1F` [Example 209, 5-Cyclopropyl-N-[[1-[3-(1,1-difluoroethyl)-4-fluoro-phenyl]triazol-4-yl]methyl]pyrimidin-2-amine], with 0.104 µM; and `Fc1ccc(-n2cc(COc3ncc(Cl)cn3)nn2)cc1` [Example 164, 5-Chloro-2-[[1-(4-fluorophenyl)triazol-4-yl]methoxy]pyrimidine], with 0.371 µM. Regarding `Cc1cnc(OCc2cn(-c3cccc(C(F)F)c3)nn2)nc1C` [Example 155, 2-[[1-[3-(Difluoromethyl)phenyl]triazol-4-yl]methoxy]-4,5-dimethyl-pyrimidine], the IC50 amounted to 0.006 µM. Turning to `FC1(F)Oc2ccc(-n3cc(COc4ncc(Cl)cn4)nn3)cc2O1` [Example 356, 5-Chloro-2-[[1-(2,2-difluoro-1,3-benzodioxol-5-yl)triazol-4-yl]methoxy]pyrimidine], the IC50 was determined as 0.185 µM.

On to `Cc1nc(NCc2cn(-c3ccc(F)c(C(F)F)c3)nn2)ncc1Cl` [Example 218, 5-Chloro-N-((1-(3-(difluoromethyl)-4-fluorophenyl)-1H-1,2,3-triazol-4-yl)methyl)-4-methylpyrimidin-2-amine], for which the IC50 stood at 0.011 µM.

As for `Nc1ccnc(OCc2cn(-c3cccc(OC(F)(F)F)c3)nn2)n1` [Example 353, 2-[[1-[3-(Trifluoromethoxy)phenyl]triazol-4-yl]methoxy]pyrimidin-4-amine], the IC50 was 0.525 µM.

For the molecule `CC(Oc1ncccn1)c1cn(-c2ccc(Cl)c(OC(F)F)c2)nn1` (single isomer, unassigned) [Example 55, (S*)-2-[1-[1-[4-Chloro-3-(difluoromethoxy)phenyl]triazol-4-yl]ethoxy]pyrimidine], the IC50 turned out to be 0.008 µM.

As usually defined, the IC50 is the concentration needed to halve the response being measured.
